Among the test systems are A498 renal; A549 NSCLC; ACHN renal; CCRF-CEM leukemia; MOLT-4 leukemia; OVCAR-3 ovarian; OVCAR-5 ovarian; OVCAR-8 ovarian; SF-539 CNS; SK-OV-3 ovarian; SNB-19 CNS; TK-10 renal; U251 CNS; UO-31 renal.
What all share (experiment): NCI anticancer screen, dose series, 48 h

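Cultured in 96-well plates, cells were exposed to test compound for 48 hours across five concentrations. Definition used: TGI = concentration required for complete inhibition of growth.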 Some results are limits rather than exact numbers.

`COc1ccc2c3c1O[C@]1(C)C34CCN(C)C(C2)C42C=C[C@@]1(OC)c1c(O)ccc(O)c12`: the TGI in the experiment on A498 renal, in the experiment with A549 NSCLC, with ACHN renal, in the experiment with CCRF-CEM leukemia, in the experiment on MOLT-4 leukemia and in the experiment on OVCAR-3 ovarian was greater than 100 µM each time. Further, the TGI in the experiment on OVCAR-5 ovarian, with OVCAR-8 ovarian, in the experiment on SF-539 CNS, in the experiment with SK-OV-3 ovarian, with SNB-19 CNS and in the experiment with TK-10 renal was greater than 100 µM throughout. The TGI in the experiment on U251 CNS and in the experiment on UO-31 renal was greater than 100 µM in each case.
On to `C[C@]12CCC(=O)C=C1CC[C@@H]1[C@@H]2CC[C@]2(C)C(=O)NC(=O)C[C@@H]12`, for which the TGI in the experiment on A498 renal, in the experiment with A549 NSCLC, in the experiment on ACHN renal, with CCRF-CEM leukemia, with MOLT-4 leukemia and in the experiment on OVCAR-3 ovarian was greater than 100 µM in each case. Further, the TGI with OVCAR-5 ovarian, with OVCAR-8 ovarian, in the experiment with SF-539 CNS, in the experiment on SK-OV-3 ovarian, in the experiment on SNB-19 CNS and in the experiment on TK-10 renal was greater than 100 µM in each case. The TGI with U251 CNS and with UO-31 renal was greater than 100 µM in each case.
Regarding `COC1=C(OC)C(=O)C(Cc2c(Cl)nc3sc(C)cn23)=C(C)C1=O`, the TGI with A498 renal is 65.5 µM; in the experiment on A549 NSCLC, 41.8 µM; with ACHN renal it was 40 µM; in the experiment with CCRF-CEM leukemia, 8.73 µM; with MOLT-4 leukemia, 4.21 µM; in the experiment with OVCAR-3 ovarian, 26.1 µM. The TGI worked out at 35.9 µM in the experiment on OVCAR-5 ovarian; 41.2 µM in the experiment with OVCAR-8 ovarian; 34.6 µM in the experiment with SF-539 CNS; 32 µM in the experiment with SK-OV-3 ovarian; 41.3 µM in the experiment on SNB-19 CNS; 31.7 µM with TK-10 renal. Also, the TGI in the experiment with U251 CNS worked out at 36 µM; in the experiment on UO-31 renal, 42.9 µM.
For `COC(=O)[C@@H]1CN(C(C)=O)C(=O)N1`, the TGI with A498 renal, in the experiment on A549 NSCLC, with ACHN renal, in the experiment with CCRF-CEM leukemia, in the experiment on MOLT-4 leukemia and in the experiment with OVCAR-3 ovarian was greater than 100 µM each time. Moreover, the TGI in the experiment with OVCAR-5 ovarian, in the experiment on OVCAR-8 ovarian, with SF-539 CNS, in the experiment with SK-OV-3 ovarian, with SNB-19 CNS and with TK-10 renal was greater than 100 µM throughout. Also, the TGI with U251 CNS and with UO-31 renal was greater than 100 µM each time.
For the molecule `C=CCN1C(=O)C=C(c2ccccc2)n2ncc3cccc1c32`, the TGI in the experiment on A498 renal, in the experiment with A549 NSCLC, with ACHN renal, in the experiment on CCRF-CEM leukemia, in the experiment on MOLT-4 leukemia and in the experiment with OVCAR-3 ovarian was greater than 100 µM throughout. The TGI with OVCAR-5 ovarian, with OVCAR-8 ovarian, in the experiment on SF-539 CNS, in the experiment with SK-OV-3 ovarian, in the experiment on SNB-19 CNS and in the experiment with TK-10 renal was greater than 100 µM in each case. Moreover, the TGI in the experiment on U251 CNS and in the experiment with UO-31 renal was greater than 100 µM each time.
As for `CCOC(=O)P(=O)(O)c1ccc(N(C)Cc2ccccc2)cc1`, the TGI in the experiment on A498 renal, in the experiment with A549 NSCLC, in the experiment with ACHN renal, in the experiment on CCRF-CEM leukemia, with MOLT-4 leukemia and in the experiment on OVCAR-3 ovarian was greater than 100 µM in each case. Also, the TGI with OVCAR-5 ovarian, in the experiment with OVCAR-8 ovarian, in the experiment with SF-539 CNS, with SK-OV-3 ovarian, in the experiment on SNB-19 CNS and with TK-10 renal was greater than 100 µM throughout. Also, the TGI in the experiment on U251 CNS and in the experiment on UO-31 renal was greater than 100 µM each time.
`O=S1(=O)N=C(SCc2ccccc2)N(c2ccccc2)c2ccncc21`: the TGI with A498 renal is 59.9 µM; with A549 NSCLC it was greater than 100 µM; with ACHN renal, greater than 100 µM; with CCRF-CEM leukemia, greater than 100 µM; with MOLT-4 leukemia, greater than 100 µM; in the experiment with OVCAR-3 ovarian it was greater than 100 µM. For the same molecule, the TGI in the experiment on OVCAR-5 ovarian, in the experiment on OVCAR-8 ovarian, with SF-539 CNS, in the experiment on SK-OV-3 ovarian, with SNB-19 CNS and in the experiment on TK-10 renal was greater than 100 µM throughout. The TGI is greater than 100 µM with U251 CNS and 46.8 µM in the experiment on UO-31 renal.
Take `O=C1CCC2C(O)c3cc4c(cc3C(c3ccc5c(c3)OCO5)N12)OCO4` (configuration not stated): the TGI with A498 renal, in the experiment on A549 NSCLC, with ACHN renal, with CCRF-CEM leukemia, in the experiment with MOLT-4 leukemia and in the experiment on OVCAR-3 ovarian was greater than 100 µM in each case. In addition, the TGI with OVCAR-5 ovarian, in the experiment with OVCAR-8 ovarian, in the experiment on SF-539 CNS, with SK-OV-3 ovarian, in the experiment with SNB-19 CNS and in the experiment with TK-10 renal was greater than 100 µM throughout. Also, the results for the TGI with U251 CNS and with UO-31 renal were 60.9 µM and greater than 100 µM, respectively.
As for `Cc1cc2ccccc2n2c1nc1ccccc12`, the TGI was 76.7 µM in the experiment with A498 renal; greater than 100 µM in the experiment on A549 NSCLC; greater than 100 µM with ACHN renal; greater than 100 µM in the experiment with CCRF-CEM leukemia; greater than 100 µM with MOLT-4 leukemia; greater than 100 µM with OVCAR-3 ovarian. Further, the TGI in the experiment with OVCAR-5 ovarian, in the experiment on OVCAR-8 ovarian, in the experiment with SF-539 CNS, with SK-OV-3 ovarian, in the experiment with SNB-19 CNS and in the experiment on TK-10 renal was greater than 100 µM in each case. Further, the TGI with U251 CNS and with UO-31 renal was greater than 100 µM each time.
As for `CSc1nc(C#N)c(/N=C\N(C)C)n1C`, the TGI in the experiment on A498 renal, in the experiment with A549 NSCLC, with ACHN renal, with CCRF-CEM leukemia, in the experiment on MOLT-4 leukemia and in the experiment with OVCAR-3 ovarian was greater than 100 µM each time. Moreover, the TGI with OVCAR-5 ovarian, with OVCAR-8 ovarian, in the experiment with SF-539 CNS, in the experiment on SK-OV-3 ovarian, with SNB-19 CNS and in the experiment on TK-10 renal was greater than 100 µM throughout. The TGI in the experiment on U251 CNS and in the experiment with UO-31 renal was greater than 100 µM each time.
Regarding `O=C(CC(=O)N(C(=O)/C=C\c1ccccc1)c1ccc(Cl)cc1)N1N=C(c2ccccc2)C(N=Nc2cccc([N+](=O)[O-])c2)C1=O` (configuration not stated), the TGI in the experiment on A498 renal was 35.6 µM; in the experiment with A549 NSCLC, greater than 100 µM; in the experiment with ACHN renal, greater than 100 µM; with CCRF-CEM leukemia it was 38.5 µM; with MOLT-4 leukemia, 24.7 µM; in the experiment on OVCAR-3 ovarian, 6.25 µM. Further, the TGI in the experiment on OVCAR-5 ovarian is greater than 100 µM; in the experiment with OVCAR-8 ovarian, greater than 100 µM; in the experiment on SF-539 CNS, 25.8 µM; in the experiment on SK-OV-3 ovarian, 40.7 µM; in the experiment with SNB-19 CNS, greater than 100 µM; with TK-10 renal, 38.9 µM. Besides, the TGI in the experiment on U251 CNS was 33.7 µM; with UO-31 renal, greater than 100 µM.
Consider `C=CCOc1cccc(C2(O)c3ccccc3C3=NCCCN32)c1` (configuration not stated), for which the TGI in the experiment with A498 renal was 53.2 µM; in the experiment with A549 NSCLC, greater than 39.4 µM; in the experiment on ACHN renal, 26.5 µM; with CCRF-CEM leukemia, 40.9 µM; in the experiment with MOLT-4 leukemia, 40 µM; in the experiment with OVCAR-3 ovarian it was 10.4 µM. In addition, the TGI in the experiment on OVCAR-5 ovarian is greater than 77.9 µM; with OVCAR-8 ovarian, greater than 43.2 µM; in the experiment with SF-539 CNS it was 37.6 µM; in the experiment with SK-OV-3 ovarian it was greater than 100 µM; in the experiment on SNB-19 CNS, 18.4 µM; in the experiment with TK-10 renal it was greater than 100 µM. In addition, the figures for the TGI in the experiment on U251 CNS and in the experiment with UO-31 renal were 32.5 µM and 29.4 µM, respectively.
As to `CC(=O)OCC1=C(CCC#N)N2C(=O)C(NC(=O)Cc3cccs3)C2S(=O)C1` (configuration not stated), the TGI in the experiment on A498 renal, with A549 NSCLC, in the experiment on ACHN renal, in the experiment with CCRF-CEM leukemia, in the experiment with MOLT-4 leukemia and in the experiment with OVCAR-3 ovarian was greater than 100 µM each time. The TGI with OVCAR-5 ovarian, in the experiment with OVCAR-8 ovarian, in the experiment with SF-539 CNS, with SK-OV-3 ovarian, in the experiment with SNB-19 CNS and in the experiment on TK-10 renal was greater than 100 µM each time. Further, the TGI in the experiment with U251 CNS and in the experiment with UO-31 renal was greater than 100 µM in each case.

The record behind these values is PubChem BioAssay (NCI).
